Measurements taken from article PMC5250654 (Clinical Drug Investigation, 2016).
Entries after “also recorded” stand apart in the source; their conditions may differ. Like-named read-outs stand apart in the source and are kept apart here.

Assays:
[1] = tested on: anti-immunoglobulin E-stimulated CD63 expression on basophils; test: CD63 assay: ex vivo anti-IgE-stimulated CD63 expression on whole-blood basophils; assay type: cell-based, human
[2] = Aqueous solubility of mono-mesylate salt; assay type: physicochemical
[3] = Safety and tolerability, FIH study; assay type: in vivo, human
[4] = Safety and tolerability, fed studies; assay type: in vivo, human; conditions: n = 40
[5] = for C trough: Day 7 (steady state), mean (%CV)
[6] = fed vs fasted, dose-dependent
[7] = target: uridine 5′-diphospho-glucuronosyltransferase (UGT) 1A1; conditions: read-out: UGT1A1 inhibition IC50; in vitro; cited from earlier work
[8] = tested on: relapsed or refractory CLL; conditions: 800 mg twice-daily oral, relapsed or refractory CLL (n = 41), cited from earlier work
[9] = clinical; conditions: human, in vivo, po
[10] = clinical; conditions: human, in vivo; for Tmax: t max; for Tmax / half-life: fasted; for half-life: t ½
[11] = tested on: B cell malignancies; conditions: 200 or 250 mg twice daily, cited from earlier work
[12] = FIH study (fasted), multiple dose, n = 56
[13] = FIH study (fasted), single dose, n = 40
[14] = po, 200 mg, Day 7 (steady state), 200 mg twice daily oral, median (interquartile range)
[15] = po, 600 mg, Day 7 (steady state), 600 mg twice daily oral, median (interquartile range)
[16] = po, 1200 mg, Day 7 (steady state), 1200 mg twice daily oral, median (interquartile range)

Question: With `c1cn2cc(-c3ccc4cn[nH]c4c3)nc(Nc3ccc(N4CCOCC4)cc3)c2n1` [entospletinib, Entospletinib] as the molecule, how does the “inhibition of CD63 expression maintained at C trough” value ([1]; doses ≥600 mg twice daily, 12 h post-dose) read?
Answer: ≥ 63%

Question: What about the “maximal mean inhibition of CD63 expression” value ([1]; doses ≥600 mg twice daily, peak at 2–4 h post-dose) of the same molecule?
Answer: ≥ 86%

Question: And the “EC50 for inhibition of CD63” value ([1]; plasma concentration–response, percentage of baseline)?
Answer: 0.429 µg/mL

Question: And the solubility ([2]; aqueous buffer, pH 2)?
Answer: 3000 µg/mL

Question: And the solubility ([2]; aqueous medium)?
Answer: < 1 µg/mL

Question: What about the “severity of adverse events” value ([3]; FIH and fed studies) of the same molecule?
Answer: mild to moderate; also recorded: mild or moderate

Question: What about the “discontinuations due to treatment-related AEs” value ([3]; FIH study) of the same molecule?
Answer: no AE-driven study drug discontinuations

Question: What about the “Laboratory abnormality Grade ≥3: ALT” value [3, 12] of the same molecule?
Answer: 1 (1.8) n (%)

Question: And the “Laboratory abnormality Grade ≥3: AST” value [3, 12]?
Answer: 1 (1.8) n (%)

Question: And the “Laboratory abnormality Grade ≥3: Total bilirubin” value [3, 12]?
Answer: 1 (1.8) n (%)

Question: And the “Treatment-related AE: Headache” value [3, 12]?
Answer: 18 (32.1) n (%)

Question: What about the “Treatment-related AE: Oropharyngeal pain” value [3, 12] of the same molecule?
Answer: 6 (10.7) n (%)

Question: And the “Treatment-related AE: Rhinorrhea” value [3, 12]?
Answer: 7 (12.5) n (%)

Question: What about the “Laboratory abnormality Grade ≥3: Creatinine kinase” value [3, 13] of the same molecule?
Answer: 1 (2.5) n (%)

Question: And the “Treatment-related AE: Headache” value [3, 13]?
Answer: 5 (12.5) n (%)

Question: And the “Treatment-related AE: Nausea” value [3, 13]?
Answer: 6 (10.7) n (%)

Question: And the tolerability ([3]; single or multiple oral doses, healthy adults)?
Answer: generally well-tolerated; also recorded: When administered in single or multiple oral doses in healthy adults, entospletinib monotherapy is generally well-tolerated

Question: And the “Treatment-related AE: Headache” value [4]?
Answer: 10 (25.0) n (%)

Question: What about the “Treatment-related AE: Oropharyngeal pain” value [4] of the same molecule?
Answer: 5 (12.5) n (%)

Question: What about the “Treatment-related AE: Urinary tract infection” value [4] of the same molecule?
Answer: 1 (2.5) n (%)

Question: And the “increase in exposure (C max and AUC) on day 7 compared with day 1” value ([5]; 7 days of twice-daily dosing, fasted)?
Answer: 2- to 4 fold

Question: What about the C trough ([5]; 25 mg twice daily oral, fasted) of the same molecule?
Answer: 11.9 (64.5) ng/mL

Question: What about the C trough ([5]; 75 mg twice daily oral, fasted) of the same molecule?
Answer: 79.2 (64.0) ng/mL

Question: What about the C trough ([5]; 200 mg twice daily oral, fasted) of the same molecule?
Answer: 380 (63.3) ng/mL

Question: And the C trough ([5]; 600 mg twice daily oral, fasted)?
Answer: 1242 (65.6) ng/mL

Question: And the C trough ([5]; 900 mg twice daily oral, fasted)?
Answer: 1473 (67.2) ng/mL

Question: What about the C trough ([5]; 1200 mg twice daily oral, fasted) of the same molecule?
Answer: 1471 (79.6) ng/mL

Question: What about the “steady-state C trough levels” value ([5]; doses of 600 mg twice daily or higher) of the same molecule?
Answer: > 1200 ng/mL

Question: What about the “terminal t ½” value ([5]; single and multiple oral administration, fasted) of the same molecule?
Answer: 9 h

Question: What about the “reduction in AUC under fed conditions” value [6] of the same molecule?
Answer: 20–80%

Question: And the “reduction in C max under fed conditions” value [6]?
Answer: 20–70%

Question: What about the IC50 [7] of the same molecule?
Answer: ~2500 nM

Question: And the “progression-free survival (PFS) rate” value ([8]; at 24 weeks)?
Answer: 70.1%

Question: And the “median PFS” value [8]?
Answer: 13.8 months

Question: And the half-life [9]?
Answer: ~9 h

Question: What about the AUC(0-inf) ([9]; 25 mg) of the same molecule?
Answer: 231 ng·h/mL

Question: What about the Cmax ([9]; 25 mg) of the same molecule?
Answer: 42.3 ng/mL

Question: What about the Tmax ([9]; 25 mg) of the same molecule?
Answer: 2 h

Question: What about the half-life ([9]; 25 mg) of the same molecule?
Answer: 6.77 h

Question: What about the AUC(0-inf) ([9]; 75 mg) of the same molecule?
Answer: 413 ng·h/mL

Question: And the Cmax ([9]; 75 mg)?
Answer: 67.8 ng/mL

Question: What about the Tmax ([9]; 75 mg) of the same molecule?
Answer: 2.75 h

Question: And the half-life ([9]; 75 mg)?
Answer: 5.31 h

Question: And the AUC(0-inf) ([9]; 200 mg)?
Answer: 4250 ng·h/mL

Question: What about the Cmax ([9]; 200 mg) of the same molecule?
Answer: 534 ng/mL

Question: What about the Tmax ([9]; 200 mg) of the same molecule?
Answer: 2 h

Question: And the half-life ([9]; 200 mg)?
Answer: 9.51 h

Question: And the Cmax ([9]; 600 mg)?
Answer: 779 ng/mL

Question: And the Tmax ([9]; 600 mg)?
Answer: 2 h

Question: And the half-life ([9]; 600 mg)?
Answer: 7.72 h

Question: What about the AUC(0-inf) ([9]; 1200 mg) of the same molecule?
Answer: 9740 ng·h/mL

Question: And the Cmax ([9]; 1200 mg)?
Answer: 1060 ng/mL

Question: What about the Tmax ([9]; 1200 mg) of the same molecule?
Answer: 3.25 h

Question: What about the half-life ([9]; 1200 mg) of the same molecule?
Answer: 9.59 h

Question: And the Tmax [10, 14]?
Answer: 2.27 h

Question: What about the half-life [10, 14] of the same molecule?
Answer: 10 h

Question: What about the Tmax [10, 15] of the same molecule?
Answer: 2.25 h

Question: And the half-life [10, 15]?
Answer: 15.4 h

Question: And the AUC(0-t) ([10]; po, 900 mg)?
Answer: 5860 ng·h/mL

Question: And the Tmax [10, 16]?
Answer: 2.75 h

Question: What about the half-life [10, 16] of the same molecule?
Answer: 13.9 h

Question: And the half-life ([10]; doses ≤200 mg twice daily)?
Answer: ~9 h

Question: What does the source list for `COc1cc(Nc2ncc(F)c(Nc3ccc4c(n3)N(COP(=O)(O)O)C(=O)C(C)(C)O4)n2)cc(OC)c1OC` [fostamatinib]?
Answer: overall response rate (ORR) ([11]; CLL/small lymphocyte leukemia): 55%; overall response rate (ORR) ([11]; DLBCL): 22%; overall response rate (ORR) ([11]; FL): 10%; overall response rate (ORR) ([11]; MCL): 11%
